Patent US8193362B2 (Syngenta Crop Protection LLC, priority 2008, dated 2012)

Tests used:
Format in all cases: in vivo
[1] = tested on: Plutella xylostella (Diamond Back Moth); assay: Plutella xylostella L2 larvae test on artificial diet in 24-well microtiter plate; conditions: 144 h, 200 ppm (concentration in well 18 ppm), 6 days, larval mortality, growth regulation
Method: Plutella xylostella (Diamond Back Moth):
(§1) A 24-well microtiter plate (MTP) with artificial diet was treated with test solutions at an application rate of 200 ppm (concentration in well 18 ppm) by pipetting. After drying, the MTP's were infested with L2 larvae (7-12 per well). After an incubation period of 6 days, samples were checked for larval mortality and growth regulation.

[2] = tested on: Heliothis virescens (Tobacco Budworm); assay: Comparative Heliothis virescens egg test in petri dishes on artificial diet; conditions: 144 h, 6 days incubation, read-out: percentage of dead larvae; for pest or weed control at 0.8 ppm: concentration 0.8 ppm; for pest or weed control at 1.5 ppm: concentration 1.5 ppm; for pest or weed control at 3 ppm: concentration 3 ppm; for pest or weed control at 6 ppm: concentration 6 ppm
Method: This Example illustrates the pesticidal/insecticidal properties of compounds of formula (I) compared to Comparative Compound A and Comparative Compound B. Comparative Compound A and Comparative Compound B were disclosed in WO 2006/003494.
(§2) Heliothis virescens (Tobacco Budworm):
Fresh eggs (0-24 h old) on filterpaper were placed in petri dishes on top of a layer of artificial diet and treated with diluted test solutions by pipetting. After an incubation period of 6 days, samples were checked for larval mortality and growth regulation. The percentage of dead larvae was assessed.

[3] = tested on: Heliothis virescens (Tobacco Budworm); assay: Heliothis virescens egg test on artificial diet in 24-well microtiter plate; conditions: 96 h, 200 ppm (concentration in well 18 ppm), eggs 0-24 h old, 4 days, egg mortality, larval mortality, growth regulation
Method: as §2
Eggs (0-24 h old) were placed in 24-well microtiter plate on artificial diet and treated with test solutions at an application rate of 200 ppm (concentration in well 18 ppm) by pipetting. After an incubation period of 4 days, samples were checked for egg mortality, larval mortality and growth regulation.

[4] = tested on: Diabrotica balteata (Corn Root Worm); assay: Diabrotica balteata L2 larvae test on artificial diet in 24-well microtiter plate; conditions: 120 h, 200 ppm (concentration in well 18 ppm), 5 days, larval mortality, growth regulation
Method: Diabrotica balteata (Corn Root Worm):
as §1, with “with” for “with L2”, “(L2) (6-10” for “(7-12”, “5” for “6”, “mortality,” for “mortality”

[5] = tested on: Spodoptera littoralis (Egyptian Cotton Leafworm); assay: Spodoptera littoralis cotton leaf disc spray test; conditions: foliar, 72 h, 200 ppm spray on cotton leaf discs, L1 larvae, mortality, feeding behavior, growth regulation 3 DAT
Text: Spodoptera littoralis (Egyptian Cotton Leafworm)
Cotton leaf discs were placed on agar in a 24-well microtiter plate and sprayed with test solutions at an application rate of 200 ppm. After drying, the leaf discs were infested with 5 L1 larvae. The samples were checked for mortality, feeding behavior, and growth regulation 3 days after treatment (DAT).

SMILES | pest or weed control at 200 ppm [1] | pest or weed control at 0.8 ppm [2] | pest or weed control at 1.5 ppm [2] | pest or weed control at 3 ppm [2] | pest or weed control at 6 ppm [2] | pest or weed control at 200 ppm [3] | pest or weed control at 200 ppm [4] | pest or weed control at 200 ppm [5]
O=C(Nc1cc(C(F)(F)F)c(Br)nc1C1CCN(C/C=C/c2ccc(Cl)cc2)CC1)c1ccnc(Cl)c1 [Compound G1, 2-chloro-N-{6-bromo-1′-[(E)-3-(4-chloro-phenyl)-allyl]-5-trifluoromethyl-1′,2′,3′,4′,5′,6′-hexahydro-[2,4′]bipyridinyl-3-yl}-isonicotinamide] | ≥ 80% | 100% | 100% | 100% | 100% | ≥ 80% | ≥ 80% | ≥ 80%
O=C(Nc1cc(Cl)c(Br)nc1C1CCN(C/C=C/c2ccc(Cl)cc2)CC1)c1ccnc(Cl)c1 [Compound E7, N-{6-bromo-1′-[(E)-3-(4-chloro-phenyl)-allyl]-5-chloro-1′,2′,3′,4′,5′,6′-hexahydro-[2,4′]bipyridinyl-3-yl}-2-chloro-isonicotinamide] | ≥ 80% | 100% | 100% | 100% | 100% | ≥ 80% | ≥ 80% | ≥ 80%
O=C(Nc1cc(F)c(Br)nc1C1CCN(C/C=C/c2ccc(Cl)cc2)CC1)c1ccnc(Cl)c1 [Compound D3, N-{6-bromo-1′-[(E)-3-(4-chloro-phenyl)-allyl]-5-fluoro-1′,2′,3′,4′,5′,6′-hexahydro-[2,4]bipyridinyl-3-yl}-2-chloro-isonicotinamide] | ≥ 80% | 100% | 100% | 100% | 100% | ≥ 80% | ≥ 80% | ≥ 80%
O=C(Nc1cc(F)c(Cl)nc1C1CCN(C/C=C/c2ccc(Cl)cc2)CC1)c1ccnc(Cl)c1 [Compound B1, 2-chloro-N-{6-chloro-1′-[(E)-3-(4-chloro-phenyl)-allyl]-5-fluoro-1′,2′,3′,4′,5′,6′-hexahydro-[2,4′]bipyridinyl-3-yl}-isonicotinamide] | ≥ 80% | 80% | 100% | 100% | 100% | ≥ 80% | ≥ 80% | ≥ 80%
